According to patent publication US7396837B2, “Antitumoral analogs of lamellarins” (Pharma Mar, S.A.U., priority 2002, dated 2008):
Where two headings read alike, the source gives them in different places.

Key:
[1] = tested on: K-562; assay: SRB colorimetric cell growth inhibition assay, K-562; assay type: cell-based; conditions: Homo sapiens, K562, K-562; for GI50: GI=growth inhibition, read-out: GI50 K-562; for CC50: LC=cell killing (cytotoxic effect), read-out: LC50 K-562; for IC (TGI): TGI=total growth inhibition (cytostatic effect), read-out: TGI K-562
How it was run: (§1)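 In this cytotoxicity screen, compound stays in contact with the cultured human cancer cells without washout; sulforhodamine B binding gives the measure of cell number, and endpoints separate growth inhibition from cytostasis (TGI) and killing (LC).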

[2] = tested on: A-549; assay: SRB colorimetric cell growth inhibition assay, A-549; assay type: cell-based; conditions: Homo sapiens, A549, A-549; for GI50: GI=growth inhibition, read-out: GI50 A-549; for CC50: LC=cell killing (cytotoxic effect), read-out: LC50 A-549; for IC (TGI): TGI=total growth inhibition (cytostatic effect), read-out: TGI A-549
How it was run: as §1

[3] = tested on: SK-MEL-28; assay: SRB colorimetric cell growth inhibition assay, SK-MEL-28; assay type: cell-based; conditions: Homo sapiens, SK-MEL-28, MEL-28; for GI50: GI=growth inhibition, read-out: GI50 MEL-28; for CC50: LC=cell killing (cytotoxic effect), read-out: LC50 MEL-28; for IC (TGI): read-out: TGI MEL-28
How it was run: as §1

[4] = tested on: HT-29; assay: SRB colorimetric cell growth inhibition assay, HT-29; assay type: cell-based; conditions: Homo sapiens; for CC50: LC=cell killing (cytotoxic effect), read-out: LC50 HT-29; for GI50: GI=growth inhibition, read-out: GI50 HT-29; for IC (TGI): TGI=total growth inhibition (cytostatic effect), read-out: TGI HT-29
How it was run: as §1

[5] = tested on: LoVo; assay: SRB colorimetric cell growth inhibition assay, LoVo; assay type: cell-based; conditions: Homo sapiens; for CC50: LC=cell killing (cytotoxic effect), read-out: LC50 LOVO; for GI50: GI=growth inhibition, read-out: GI50 LOVO; for IC (TGI): TGI=total growth inhibition (cytostatic effect), read-out: TGI LOVO
How it was run: as §1

[6] = tested on: LoVo-Dox; assay: SRB colorimetric cell growth inhibition assay, LoVo-Dox (MDR); assay type: cell-based
How it was run: as §1

[7] = tested on: DU-145; assay: SRB colorimetric cell growth inhibition assay, DU-145; assay type: cell-based; conditions: Homo sapiens; for CC50: LC=cell killing (cytotoxic effect), read-out: LC50 DU-145; for GI50: GI=growth inhibition, read-out: GI50 DU-145; for IC (TGI): read-out: TGI DU-145
How it was run: as §1

[8] = tested on: LNCaP; assay: SRB colorimetric cell growth inhibition assay, LNCaP; assay type: cell-based; conditions: Homo sapiens, LNCaP, LN-caP; for GI50: GI=growth inhibition, read-out: GI50 LN-caP; for CC50: LC=cell killing (cytotoxic effect), read-out: LC50 LN-caP; for IC (TGI): read-out: TGI LN-caP
How it was run: as §1

[9] = tested on: SK-BR-3; assay: SRB colorimetric cell growth inhibition assay, SK-BR-3; assay type: cell-based; conditions: Homo sapiens; for CC50: LC=cell killing (cytotoxic effect), read-out: LC50 SK-BR-3; for GI50: GI=growth inhibition, read-out: GI50 SK-BR-3; for IC (TGI): read-out: TGI SK-BR-3
How it was run: as §1

[10] = tested on: IGROV; assay: SRB colorimetric cell growth inhibition assay, IGROV; assay type: cell-based
How it was run: as §1

[11] = tested on: IGROV-ET; assay: SRB colorimetric cell growth inhibition assay, IGROV-ET (ET-743 resistant); assay type: cell-based; conditions: Homo sapiens, IGROV-ET; for GI50: GI=growth inhibition, read-out: GI50 IGROV-ET; for CC50: LC=cell killing (cytotoxic effect), read-out: LC50 IGROV-ET; for IC (TGI): read-out: TGI IGROV-ET
How it was run: as §1

[12] = tested on: PANC-1; assay: SRB colorimetric cell growth inhibition assay, PANC-1; assay type: cell-based; conditions: Homo sapiens; for CC50: LC=cell killing (cytotoxic effect), read-out: LC50 PANC-1; for IC (TGI): TGI=total growth inhibition (cytostatic effect), read-out: TGI PANC-1; for GI50: GI=growth inhibition, read-out: GI50 PANC-1
How it was run: as §1

[13] = molecular target: T1, human topoisomerase I (Homo sapiens, UniProt P11387); assay: Topoisomerase I DNA relaxation assay (supercoiled plasmid DNA); assay type: biochemical; conditions: supercoiled plasmid DNA, each compound tested at 1 μM, agarose gel with ethidium bromide
T1 sequence (P11387 1-765): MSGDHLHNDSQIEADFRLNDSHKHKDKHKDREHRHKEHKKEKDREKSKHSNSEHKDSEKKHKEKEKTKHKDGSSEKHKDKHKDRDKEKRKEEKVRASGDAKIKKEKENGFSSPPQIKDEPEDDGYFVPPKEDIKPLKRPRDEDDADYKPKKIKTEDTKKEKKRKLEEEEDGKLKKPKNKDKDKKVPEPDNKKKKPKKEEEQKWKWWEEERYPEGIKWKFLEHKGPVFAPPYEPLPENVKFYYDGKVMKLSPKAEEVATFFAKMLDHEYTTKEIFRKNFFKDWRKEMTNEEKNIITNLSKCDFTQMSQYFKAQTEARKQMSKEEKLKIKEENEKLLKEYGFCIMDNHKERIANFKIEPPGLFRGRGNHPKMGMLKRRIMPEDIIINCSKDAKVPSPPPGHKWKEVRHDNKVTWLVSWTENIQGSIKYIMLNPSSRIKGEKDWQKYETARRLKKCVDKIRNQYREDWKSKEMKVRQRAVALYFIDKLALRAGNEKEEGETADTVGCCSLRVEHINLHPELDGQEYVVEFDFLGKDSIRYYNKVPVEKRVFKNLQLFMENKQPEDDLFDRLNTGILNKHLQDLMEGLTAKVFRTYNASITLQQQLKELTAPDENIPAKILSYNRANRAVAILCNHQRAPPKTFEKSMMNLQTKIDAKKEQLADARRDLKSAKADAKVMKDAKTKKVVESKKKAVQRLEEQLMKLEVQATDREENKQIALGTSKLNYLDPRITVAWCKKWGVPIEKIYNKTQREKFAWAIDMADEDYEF
How it was run: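 Test compounds (1 μM each) were present during topoisomerase I relaxation of supercoiled plasmid DNA. Relaxation was assessed on ethidium bromide-stained agarose gels.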

[14] = total growth inhibition (cytostatic effect)
[15] = Homo sapiens, LOVO-DOX; GI=growth inhibition; read-out: GI50 LOVO-DOX
[16] = Homo sapiens, LOVO-DOX; LC=cell killing (cytotoxic effect); read-out: LC50 LOVO-DOX
[17] = Homo sapiens, IGROV; LC=cell killing (cytotoxic effect); read-out: LC50 IGROV
[18] = TGI=total growth inhibition (cytostatic effect)

| SMILES | GI50 [1] [nM] | CC50 [1] [nM] | IC (TGI) [1] [nM] | GI50 [2] [nM] | CC50 [2] [nM] | IC (TGI) [2] [nM] | GI50 [3] [nM] | CC50 [3] [nM] | CC50 ([4]; HT-29, HT-29) [nM] | CC50 ([5]; LoVo) [nM] | GI50 [6, 15] [nM] | CC50 [6, 16] [nM] | CC50 ([7]; DU-145, DU-145) [nM] | GI50 [8] [nM] | CC50 [8] [nM] | CC50 ([9]; SK-BR-3, SK-BR-3) [nM] | CC50 [10, 17] [nM] | GI50 [11] [nM] | CC50 [11] [nM] | CC50 ([12]; PANC-1, PANC-1) [nM] | further results |
| --- | --- | --- | --- | --- | --- | --- | --- | --- | --- | --- | --- | --- | --- | --- | --- | --- | --- | --- | --- | --- | --- |
| COc1cc(-c2c3c4cc(OC)c(OC(=O)[C@@H](NC(=O)OC(C)(C)C)C(C)C)cc4oc(=O)c3n3ccc4cc(OC(=O)[C@@H](NC(=O)OC(C)(C)C)C(C)C)c(OC)cc4c23)ccc1OC(=O)[C@@H](NC(=O)OC(C)(C)C)C(C)C [Compound 38] | 41.3 | 9110 | 1150 | 1340 | 9110 | 4780 | 165 | 9110 | 9110 | 9110 | 9110 | 9110 | 9110 | 152 | 3900 | 9110 | 9110 | 1290 | 9110 | 9110 | IC (TGI) [3, 14]: 520 nM; GI50 ([4]; HT-29): 32.4 nM; IC (TGI) ([4]; HT-29): 91.1 nM; GI50 ([5]; LOVO): 9110 nM; IC (TGI) ([5]; LOVO): 9110 nM; IC (TGI) ([6]; Homo sapiens; LOVO-DOX; TGI=total growth inhibition (cytostatic effect); read-out: TGI LOVO-DOX): 9110 nM; GI50 ([7]; DU-145): 51.2 nM; IC (TGI) ([7]; DU-145, total growth inhibition (cytostatic effect)): 9110 nM; IC (TGI) [8, 14]: 509 nM; GI50 ([9]; SK-BR-3): 448 nM; IC (TGI) ([9]; SK-BR-3, total growth inhibition (cytostatic effect)): 4080 nM; GI50 ([10]; Homo sapiens; IGROV; GI=growth inhibition; read-out: GI50 IGROV): 244 nM; IC (TGI) ([10]; Homo sapiens; IGROV; total growth inhibition (cytostatic effect); read-out: TGI IGROV): 1070 nM; IC (TGI) [11, 14]: 4510 nM; IC (TGI) ([12]; PANC-1, PANC-1): 9110 nM; GI50 ([12]; PANC-1): 499 nM; stimulation of DNA cleavage by topoisomerase I / inhibition of topoisomerase I (nicked DNA band) in DNA relaxation assay [13]: No effect |
| COc1cc(-c2c3c4cc(OC)c(OC(=O)[C@@H](N)CC(C)C)cc4oc(=O)c3n3ccc4cc(OC(=O)[C@@H](N)CC(C)C)c(OC)cc4c23)ccc1OC(=O)[C@@H](N)CC(C)C [Compound 39] | 35.9 | 8470 | 1080 | 46.4 | 8470 | 855 | 33.9 | 8470 | 8470 | 8470 | 323 | 8470 | 8470 | 27.9 | 8470 | 8470 | 8470 | 55 | 8470 | 8470 | IC (TGI) [3, 18]: 295 nM; GI50 ([4]; HT-29, HT-29): 3040 nM; IC (TGI) ([4]; HT-29, HT-29): 8470 nM; GI50 ([5]; LoVo): 321 nM; IC (TGI) ([5]; LoVo): 2530 nM; IC (TGI) ([6]; Homo sapiens, LOVO-DOX; TGI=total growth inhibition (cytostatic effect); read-out: TGI LOVO-DOX): 1810 nM; GI50 ([7]; DU-145, DU-145): 18 nM; IC (TGI) ([7]; DU-145, DU-145, TGI=total growth inhibition (cytostatic effect)): 142 nM; IC (TGI) [8, 18]: 252 nM; GI50 ([9]; SK-BR-3, SK-BR-3): 54.5 nM; IC (TGI) ([9]; SK-BR-3, SK-BR-3, TGI=total growth inhibition (cytostatic effect)): 1460 nM; GI50 ([10]; Homo sapiens, IGROV; GI=growth inhibition; read-out: GI50 IGROV): 34.1 nM; IC (TGI) ([10]; Homo sapiens, IGROV; TGI=total growth inhibition (cytostatic effect); read-out: TGI IGROV): 931 nM; IC (TGI) [11, 18]: 369 nM; GI50 ([12]; PANC-1, PANC-1): 164 nM; IC (TGI) ([12]; PANC-1, PANC-1): 8470 nM; stimulation of DNA cleavage by topoisomerase I / inhibition of topoisomerase I (nicked DNA band) in DNA relaxation assay [13]: marked inhibition of topoisomerase I |
